Reference: patent US20260049061A1, “SMALL MOLECULES AS KCNQ2/3 (KV7.2/3) CHANNEL ACTIVATORS AND THEIR MEDICAL USE THEREOF” (Humanwell Pharmaceutical US, Inc., priority 2024, published 2026)

The molecules below were run on formalin model using SD rats (assay: 2% formalin rat model (paw licking)). Conditions: male SD rats, 10 mg/kg oral 15 min before intraplantar 2.0% formalin, paw licking monitored for 60 min.
Type: in vivo
Procedure: SPF male SD rats (170-190 g) were purchased from Human Silaike Jingda Laboratory Animal Co. Ltd., China. The rats were housed in cages for 3 days under suitable conditions (temperature at 22±1° C., humidity at 40-70%, sufficient water and food, 12 hours of daylight). The rats with a body weight of 220-240 g were numbered for further experiments. The rats were placed in the ZH-PAN801 automated rodent behavioral tracking system (Anhui Zhenghua Biologic Apparatus Facilities) for 60 min per day for an additional 3 days.
Paw licking behavior, a correlation of spontaneous pain, was tracked using the ZH-PAN801 automated rodent behavioral tracking system that can differentiate behaviors and locomotor activity of individually housed rats. The ZH-PAN801 system consists of sensor platforms which rest on two orthogonally placed force transducers and a third fixed point attached to a base plate. Each force transducer transforms the mechanical vibrations caused by animal movement into electrical signals, which are amplified, filtered, and digitized by the ZH-PAN801 system. Characteristic movements have their own unique vibrational patterns which the ZH-PAN801 software can distinguish. The cylinder cages (75 mm (radius)×310 mm (height)) consist of two halves to sensitize detection of vibrations. Thus, the base is separate from the sides, the lid, and sits directly on the sensor platform, while the sides and the lid hang from supports on the base plate.
Rats were equipped with the force transducer 15 min before the dosing. Animals were orally administered compound 21 (10 mg/kg) 15 min before the formalin injection. Rats were administered an intraplantar injection of formalin (50 μL, 2.0%, Sigma, USA) into the dorsal surface of the hindpaw attached with the force transducer to induce acute pain and placed in the automated rodent behavioral tracking system. Paw licking behavior was monitored for 60 min using the ZH-PAN801 behavior tracking system. The duration of paw licking behavior (in minutes) was collected from two distinctive phases, the early nociceptive phase occurring 0-10 min after formalin injection and the late phase thought to be associated with central sensitization, which peaks 11-60 min after formalin injection. Treatment effects were compared to vehicles by an unpaired t-test and one-way ANOVA using Graph Pad 9.0. The results are shown in Table 3 and FIG. 2 respectively.

Row | Structure (SMILES) | % MPE (10 mpk)
1 | O=C(CCC(F)(F)F)Nc1nn2c(c1-c1ccc(F)cc1)CC(C(F)(F)F)CC2 (stereo not drawn) [Compound 34] | 65%
2 | CC(C)(CC(=O)Nc1nn2c(c1-c1ccc(F)cc1)C[C@@H](C(F)(F)F)CC2)C(F)(F)F [Compound 24] | 97%
3 | CC(C)(CC(=O)Nc1nn2c(c1-c1ccc(F)cc1)CCCC2)C(F)(F)F [Compound 38] | 87%
4 | CC(C)CS(=O)(=O)Nc1nn2ccc(Cl)cc2c1-c1ccc(F)cc1 [Compound 62] | 89%
5 | CC(C)(C)n1c(NC(=O)CC(C)(C)C(F)(F)F)nc2cc3c(cc21)CNC3 [Compound 58] | 89%

Each molecule was assayed on PTZ-induced epileptic model using ICR mice (assay: PTZ-induced epilepsy model in ICR mice). Conditions: male ICR mice, 10 mg/kg oral 30 min before PTZ 100 mg/kg i.p., recorded for 30 min.
Type: in vivo
Procedure: SPF-grade male ICR mice (22-24 g) were purchased from Human Silaike Jingda Laboratory Animal Co. Ltd., China and sent to the housing facility after veterinary inspection to adapt to the rearing environment. The mice were housed in cages for 3 days under suitable conditions (temperature at 22±1° C., humidity at 40-70%, sufficient water and food, 12 hours of daylight). On the formal test day, all mice were weighed, and those meeting the weight criteria were numbered at the base of their tails. […] Animals were orally administered compound 34 (10 mg/kg) 30 min before the i.p. injection of PTZ (100 mg/kg, Sigma, USA) for epilepsy modeling. The seizure response of the mice was evaluated based on the epilepsy grading criteria. The latency and incidence rate of each seizure grade were recorded for 30 min. After the experiment, the test animals were euthanized using carbon dioxide. The results are shown in Table 2 and FIG. 1 respectively.

Row | Structure (SMILES) | Latency to Racine IV Seizure | Latency to Racine VI Seizure
6 | O=C(CCC(F)(F)F)Nc1nn2c(c1-c1ccc(F)cc1)CC(C(F)(F)F)CC2 (stereo not drawn) [Compound 34] | 1393 s | 1658 s
7 | CC(C)(CC(=O)Nc1nn2c(c1-c1ccc(F)cc1)CCCC2)C(F)(F)F [Compound 38] | 784 s | 1320 s
8 | CC(C)CS(=O)(=O)Nc1nn2ccc(Cl)cc2c1-c1ccc(F)cc1 [Compound 62] | 636 s | 1409 s

The molecules below were run against T1, KNCQ2/3 (Kv7.2/7.3) (Homo sapiens, UniProt O43525+O43526) (assay: Kv7.2/7.3 (KNCQ2/3) activation assay, QPatch single concentration screen). Conditions: increase in current over baseline, HEK293 cells with overexpressed Kv7.2/3, compound 1 μM, steady-state current at +40 mV.
T1 construct: host or cells: HEK293
Type: cell-based
Procedure: The ability of compounds to potentiate K-currents in HEK293 cells with overexpressed KNCQ2/3 (Kv7.2/7.3) was assessed using patch clamp on the QPatch automated screening platform.
Cell Line: The HEK293 cell line with overexpressed Kv7.2/7.3 was obtained from ICE Bioscience Inc. These HEK cells have been engineered to overexpress the Kv7.2/3 ion channels.
Cell Culture: Cells were maintained in the media containing DMEM (Corning, cat. #10-013-CV), 10% FBS (Gibco, cat. #10099141C), 800 μg/mL G418 (GPC, cat. #AK108) and 200 μg/mL hygromycin B (Solarbio, cat. #H8080). The cells were incubated at 37° C. in a humidified incubator under 5% carbon dioxide. Cells were grown in 6 cm dishes to ˜80% confluency. Currents were recorded 24 hours after channel induction.
Compound Plates: Test compounds were prepared by performing serial dilutions in DMSO (Sigma cat #D4540). Final dilutions were made in external recording solution with a final DMSO concentration of 0.1% DMSO. For single concentration screens each plate had 10 μM retigabine (Selleck Chemicals, cat. #S4733) as a positive control.
Electrophysiology: External solution contained 140 mM NaCl (Sigma cat. #S5886), 3.5 mM KCl (Sigma cat. #P5405), 1 mM MgCl2·6H2O (Sigma cat. #M2393), 2 mM CaCl2·2H2O (Sigma cat. #C7902), 10 mM D-Glucose (Sigma cat. #G8270), 10 mM HEPES (Santa Cruz cat. #SC-29097A), 1.25 mM NaH2PO4·2H2O, pH was adjusted to 7.4 with NaOH. Internal solution contained 125 mM K-Aspartic (Sigma cat. #G4500), 20 mM KCl, 10 mM EGTA (Sigma cat. #E3889), 1 mM MgCl2·6H2O, 5 mM Mg-ATP (Sigma cat. #A9187), 5 mM HEPES, pH was adjusted to 7.2 with KOH.
On the day of the experiment cells are washed with the external solution and harvested with 0.25% Trypsin EDTA (Gibco cat. #25200-072). Cells were then centrifuged at 1000 rpm/min for 5 minutes and resuspended in the external solution at ˜2.5×10^6 cells/mL. The cells were stirred with an equilibrium sharker for 20 minutes at room temperature before experiments started.
Potassium channel activity was measured on the QPatch 48X (Sophion Bioscience) using QPlates with 48-wells plate. The KCNQ current was recorded when the voltage was held at −80 mV for 3s, then stepped to −30 mV for 500 ms and back to […]. The process was repeated with an increment of 10 mV between −80 mV and +40 mV. Each cell was taken as an independent experiment and only one compound was tested per well.
Single Concentration Screen: Baseline conditions were obtained by recording 5 sweeps in the external solution only, this was repeated for three applications of the external solution. The effect of test compounds on elicited current was then assessed by recording 5 sweeps in the presence of a 1 μM compound solution. The steady-state current at the end of the 2 s pulse to +40 mV was measured to determine the fold increase from baseline.

Row | Structure (SMILES) | activity at 1 µM
9 | C=CCN1CCn2nc(NC(=O)CC(C)(C)C)c(-c3ccc(F)cc3)c2C1 [Compound 44] | 100 to 200%
10 | CC(C)(CC(=O)Nc1nn2c(c1-c1ccc(F)cc1)CN(C1CC1)CC2)C(F)(F)F [Compound 47] | 100 to 200%
11 | O=C(CC1CC(F)(F)C1)Nc1nn2c(c1-c1ccc(F)cc1)CC(C(F)(F)F)CC2 (stereo not drawn) [Compound 32] | ≥ 300%
12 | CC(C)(C)CC(=O)Nc1nn2c(c1C1CCC1)CCCC2 [Compound 8] | 200 to 300%
13 | O=C(CCC(F)(F)F)Nc1nn2c(c1-c1ccc(F)cc1)CC(C(F)(F)F)CC2 (stereo not drawn) [Compound 34] | 200 to 300%
14 | CC(C)(C)CC(=O)Nc1nn2c(c1-c1ccc(F)cc1)CN(C(F)(F)F)CC2 [Compound 7] | 100 to 200%
15 | O=C(CC1CSC1)Nc1nn2c(c1-c1ccc(F)cc1)CC(C(F)(F)F)CC2 (stereo not drawn) [Compound 37] | 100 to 200%
16 | CC(C)(C)CC(=O)Nc1nc2n(c1C1CCCCC1)CCCC2 [Compound 53] | 100 to 200%
17 | CC(C)(C)CC(=O)Nc1nn2c(c1-c1cccnc1)CC(C(F)(F)F)CC2 (stereo not drawn) [Compound 16] | 100 to 200%
18 | CC(C)(C)CC(=O)Nc1nn2c(c1C1CCCCC1)CC(C(F)(F)F)CC2 (stereo not drawn) [Compound 15] | ≥ 300%
19 | O=C(CC12CC(C1)C2)Nc1nn2c(c1-c1ccc(F)cc1)CC(C(F)(F)F)CC2 (stereo not drawn) [Compound 33] | ≥ 300%
20 | CC(C)(CC(=O)Nc1nn2c(c1-c1ccc(F)cc1)CC(C(F)(F)F)CC2)C(F)(F)F (stereo not drawn) [Compound 10] | ≥ 300%
21 | CCn1c(NC(=O)CC(C)(C)C(F)(F)F)nc2c1CCCC2 [Compound 64] | 100 to 200%
22 | CC(C)(C)CC(=O)Nc1nc2ncccc2n1-c1ccc(F)cc1 [Compound 60] | 100 to 200%
23 | CC1(CC(=O)Nc2nn3c(c2-c2ccc(F)cc2)CC(C(F)(F)F)CC3)CC1 (stereo not drawn) [Compound 35] | ≥ 300%
24 | CC(C)(C)CC(=O)Nc1nn2c(c1-c1ccc(F)cc1)CN(C1CC1)CC2 [Compound 43] | 200 to 300%
25 | CC(C)(C)CC(=O)Nc1nc2n(c1-c1ccc(OC(F)(F)F)cc1)CCCC2 [Compound 54] | 200 to 300%
26 | COC1CCn2nc(NC(=O)CC(C)(C)C)c(-c3ccc(F)cc3)c2C1 (stereo not drawn) [Compound 12] | 200 to 300%
27 | CCn1c(NC(=O)CC(C)(C)C)nc2c1CCCC2 [Compound 65] | 200 to 300%
28 | CC(C)(C)CC(=O)Nc1nc2c(n1C(C)(C)C)CCCC2 [Compound 1] | 100 to 200%
29 | CC(C)(C)CC(=O)Nc1nn2c(c1C1CCC1)CC(C(F)(F)F)CC2 (stereo not drawn) [Compound 20] | ≥ 300%
30 | CC(C)(C)CC(=O)Nc1nc2c(n1C1CCC1)CCCC2 [Compound 3] | 100 to 200%
31 | CC(C)(C)CC(=O)Nc1nn2c(c1-c1ccc(F)cc1)CC1(CC2)CC(F)(F)C1 [Compound 55] | ≥ 300%
32 | CC(C)(F)CC(=O)Nc1nn2c(c1-c1ccc(F)cc1)CC(C(F)(F)F)CC2 (stereo not drawn) [Compound 36] | ≥ 300%
33 | CC(C)(C)CC(=O)Nc1nn2c(c1C1=CCCCC1)CC(C(F)(F)F)CC2 (stereo not drawn) [Compound 14] | 200 to 300%
